# What was measured:
# Assay in all cases: relative viability (nuclei count vs DMSO), 5 days (fraction); higher = more cells survive
# Pemetrexed + Trametinib = compound: Nc1nc2[nH]cc(CCc3ccc(C(=O)N[C@@H](CCC(=O)O)C(=O)O)cc3)c2c(=O)[nH]1 [Pemetrexed] + CC(=O)Nc1cccc(-n2c(=O)n(C3CC3)c(=O)c3c(Nc4ccc(I)cc4F)n(C)c(=O)c(C)c32)c1 [Trametinib] (partner 0.02 µM)
# Method in brief: (§1)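 After 5 days of treatment, lung cancer cells in 1536-well plates were fixed and stained in a single step (final 0.05% Triton X-100, 1% formaldehyde, 1 ug/ml Hoechst) and their nuclei counted on 4× images. Treatment had been applied by pin tool the day after seeding as one drug alone or as a fixed anchor-drug dose with five library-drug doses (not always all listed) in √10 steps. Relative viability is the nuclei count of treated wells divided by that of vehicle wells, and values are medians of duplicate plates.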
# Pemetrexed + OSI-027 = compound: Nc1nc2[nH]cc(CCc3ccc(C(=O)N[C@@H](CCC(=O)O)C(=O)O)cc3)c2c(=O)[nH]1 [Pemetrexed] + COc1cccc2cc(-c3nc([C@H]4CC[C@H](C(=O)O)CC4)n4ncnc(N)c34)[nH]c12 [OSI-027] (partner 0.5 µM)
# Method in brief: as §1
# Pemetrexed + Crizotinib = compound: Nc1nc2[nH]cc(CCc3ccc(C(=O)N[C@@H](CCC(=O)O)C(=O)O)cc3)c2c(=O)[nH]1 [Pemetrexed] + C[C@@H](Oc1cc(-c2cnn(C3CCNCC3)c2)cnc1N)c1c(Cl)ccc(F)c1Cl [Crizotinib] (partner 1 µM)
# Method in brief: as §1
# Pemetrexed + Olaparib = compound: Nc1nc2[nH]cc(CCc3ccc(C(=O)N[C@@H](CCC(=O)O)C(=O)O)cc3)c2c(=O)[nH]1 [Pemetrexed] + O=C(c1cc(Cc2n[nH]c(=O)c3ccccc23)ccc1F)N1CCN(C(=O)C2CC2)CC1 [Olaparib] (partner 8 µM)
# Method in brief: as §1
Cell Line,relative viability (Pemetrexed + Trametinib; first compound 0.002 µM),relative viability (Pemetrexed + Trametinib; first compound 0.006325 µM),relative viability (Pemetrexed + Trametinib; first compound 0.02 µM),relative viability (Pemetrexed + Trametinib; first compound 0.06325 µM),relative viability (Pemetrexed + Trametinib; first compound 0.2 µM),relative viability (Pemetrexed + OSI-027; first compound 0.002 µM),relative viability (Pemetrexed + OSI-027; first compound 0.006325 µM),relative viability (Pemetrexed + OSI-027; first compound 0.02 µM),relative viability (Pemetrexed + OSI-027; first compound 0.06325 µM),relative viability (Pemetrexed + OSI-027; first compound 0.2 µM),relative viability (Pemetrexed + Crizotinib; first compound 0.002 µM),relative viability (Pemetrexed + Crizotinib; first compound 0.006325 µM),relative viability (Pemetrexed + Crizotinib; first compound 0.02 µM),relative viability (Pemetrexed + Crizotinib; first compound 0.06325 µM),relative viability (Pemetrexed + Crizotinib; first compound 0.2 µM),relative viability (Pemetrexed + Olaparib; first compound 0.006325 µM),relative viability (Pemetrexed + Olaparib; first compound 0.02 µM),relative viability (Pemetrexed + Olaparib; first compound 0.06325 µM),relative viability (Pemetrexed + Olaparib; first compound 0.2 µM),relative viability (Pemetrexed + Olaparib; first compound 0.002 µM)
HOP-62,0.431,0.389,0.386,0.399,0.327,0.728,0.856,0.936,0.825,0.729,0.836,0.779,0.499,0.791,0.933,0.443,0.55,0.391,0.387,–
NCI-H1355,0.404,0.441,0.392,0.416,0.418,0.391,0.389,0.466,0.509,0.387,0.933,0.964,1.13,1.06,1.07,0.709,0.731,0.754,0.691,0.676
COR-L23,0.581,0.569,0.733,0.206,0.152,0.699,0.781,0.799,0.275,0.163,0.589,0.631,0.636,0.26,0.14,0.406,0.36,0.253,0.152,0.28
HCC-44,0.946,1.05,1.14,1.09,1.04,0.489,0.623,0.631,0.484,0.444,0.758,0.775,0.84,0.847,0.574,0.952,0.987,0.964,0.909,0.97
A-427,0.785,0.794,0.794,0.696,0.733,0.422,0.431,0.481,0.466,0.402,0.905,0.894,0.953,0.936,0.884,0.765,0.775,0.759,0.711,0.758
NCI-H520,0.569,0.682,0.757,0.606,0.657,0.225,0.246,0.321,0.267,0.265,0.776,0.679,1.08,0.969,0.79,0.385,0.356,0.335,0.319,0.282
LXF-289,0.685,0.673,0.729,0.676,0.637,0.775,0.759,0.909,0.76,0.744,0.808,0.832,0.841,0.843,0.79,1.04,1.1,1.03,0.976,1.07
NCI-H2087,0.145,0.173,0.215,0.212,0.249,0.55,0.512,0.538,0.589,0.524,0.945,0.818,0.912,0.85,0.786,0.585,0.626,0.534,0.539,0.595

# — the supplement of paper PMC10307832
